This passage reports Kd results from patent publication US11028079B2 (ConverGene LLC, priority 2015, dated 2021).

SMILES strings stand for the structures. Some results are limits rather than exact numbers.

The experiment deals with T1, BRD4 bromodomains (Homo sapiens, UniProt O60885).
T1 construct: fused on or other part: T7 phage capsid protein (phage-display fusion; the phage DNA is read out by qPCR)
The experiment can be described thus: BROMOscan bromodomain competition binding assay (DiscoveRx). The settings on record: Kd from 11 compound concentrations ranging from 0 to 10 μM, read-out: BROMOscan Relative Activity. Put shortly:
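Compounds in 0.1% DMSO/0.9% MEG competed with a solid-phase acetylated peptide for T7 phage-fused BRD4 bromodomains, with the retained bromodomain measured by qPCR.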
Consider `Cc1noc(C)c1-c1ccc2nc(-c3cnn(CC#N)c3)nc(NCc3cccc(Cl)c3)c2c1` [Example 59, 2-(4-(4-((3-chlorobenzyl)amino)-6-(3,5-dimethylisoxazol-4-yl)quinazolin-2-yl)-1H-pyrazol-1-yl)acetonitrile], for which the Kd was below 500 nM.

As for `Cc1noc(C)c1-c1ccc2nc(C(=O)NCC3CC(F)(F)C3)nc(NCc3cccc(Cl)c3)c2c1` [Example 256, 4-((3-chlorobenzyl)amino)-N-((3,3-difluorocyclobutyl)methyl)-6-(3,5-dimethylisoxazol-4-yl)quinazoline-2-carboxamide], the Kd is 500 to 5000 nM.

For the molecule `Cc1noc(C)c1-c1ccc2nc(N3CCC(C)(C#N)CC3)nc(NCc3cccc(Cl)c3)c2c1` [Example 156, 1-(4-((3-chlorobenzyl)amino)-6-(3,5-dimethylisoxazol-4-yl)quinazolin-2-yl)-4-methylpiperidine-4-carbonitrile], the Kd was 500 to 5000 nM.

Turning to `Cc1noc(C)c1-c1ccc2nc(N3CCN(CCN(C)C)CC3)nc(N3CCC3c3ccccc3)c2c1` (stereo not shown) [Example 179, 2-(4-(6-(3,5-dimethylisoxazol-4-yl)-4-(2-phenylazetidin-1-yl)quinazolin-2-yl)piperazin-1-yl)-N,N-dimethylethanamine], the Kd was below 500 nM.

On to `Cc1noc(C)c1-c1ccc2nc(-c3cnn(CC(C)(C)O)c3)nc(NCc3cncc(Cl)c3)c2c1` [Example 139, 1-(4-(4-(((5-chloropyridin-3-yl)methyl)amino)-6-(3,5-dimethylisoxazol-4-yl)quinazolin-2-yl)-1H-pyrazol-1-yl)-2-methylpropan-2-ol], for which the Kd is below 500 nM.

Take `Cc1nn(C)cc1CNC(=O)c1nc(NC2(c3cccc(Cl)c3)CC2)c2cc(-c3c(C)noc3C)ccc2n1` [Example 245, 4-((1-(3-chlorophenyl)cyclopropyl)amino)-N-((1,3-dimethyl-1H-pyrazol-4-yl)methyl)-6-(3,5-dimethylisoxazol-4-yl)quinazoline-2-carboxamide]: the Kd is below 500 nM.

Turning to `Cc1noc(C)c1-c1ccc2ncnc(Nc3ccc(Cl)cc3)c2c1` [Example 158, N-(4-chlorophenyl)-6-(3,5-dimethylisoxazol-4-yl)quinazolin-4-amine], the Kd was in the range of 500 to 5000 nM.

As to `Cc1noc(C)c1-c1ccc2nc(C(=O)NC3CCOCC3)nc(NCc3cccc(Cl)c3)c2c1` [Example 226, 4-((3-chlorobenzyl)amino)-6-(3,5-dimethylisoxazol-4-yl)-N-(tetrahydro-2H-pyran-4-yl)quinazoline-2-carboxamide], the Kd is below 500 nM.

Consider `Cc1noc(C)c1-c1ccc2nc(C(=O)NCc3ccc(Cl)cc3)nc(NCc3cccc(Cl)c3)c2c1` [Example 168, N-(4-chlorobenzyl)-4-((3-chlorobenzyl)amino)-6-(3,5-dimethylisoxazol-4-yl)quinazoline-2-carboxamide], for which the Kd is above 5000 nM.

With `Cc1noc(C)c1-c1ccc2nc(N3CCN(C(=O)N(C)C)CC3)nc(NCc3cncc(Cl)c3)c2c1` [Example 248, 4-(4-(((5-chloropyridin-3-yl)methyl)amino)-6-(3,5-dimethylisoxazol-4-yl)quinazolin-2-yl)-N,N-dimethylpiperazine-1-carboxamide], the Kd was below 500 nM.

On to `Cc1noc(C)c1-c1ccc2nc(-c3cnn(CC(C)(C)O)c3)nc(N3CCN(C(=O)NC4CC4)C[C@@H]3c3ccccc3)c2c1` [Example 322, (S)—N-cyclopropyl-4-(6-(3,5-dimethylisoxazol-4-yl)-2-(1-(2-hydroxy-2-methylpropyl)-1H-pyrazol-4-yl)quinazolin-4-yl)-3-phenylpiperazine-1-carboxamide], for which the Kd is below 500 nM.

As for `Cc1noc(C)c1-c1ccc2nc(N3CCCN(CCN(C)C)CC3)nc(NCc3cccc(Cl)c3)c2c1` [Example 32, N-(3-chlorobenzyl)-2-(4-(2-(dimethylamino)ethyl)-1,4-diazepan-1-yl)-6-(3,5-dimethylisoxazol-4-yl)quinazolin-4-amine], the Kd is below 500 nM.

Turning to `Cn1cc(-c2ccc3nc(-c4cnn(C(C)(C)CO)c4)nc(NCc4cccc(Cl)c4)c3c2)ccc1=O` [Example 105, 5-(4-((3-chlorobenzyl)amino)-2-(1-(1-hydroxy-2-methylpropan-2-yl)-1H-pyrazol-4-yl)quinazolin-6-yl)-1-methylpyridin-2(1H)-one], the Kd was below 500 nM.

Regarding `Cn1cc(-c2ccc3nc(-c4cnn(CCC#N)c4)nc(NCc4cccc(Cl)c4)c3c2)ccc1=O` [Example 104, 3-(4-(4-((3-chlorobenzyl)amino)-6-(1-methyl-6-oxo-1,6-dihydropyridin-3-yl)quinazolin-2-yl)-1H-pyrazol-1-yl)propanenitrile], the Kd was below 500 nM.

Consider `Cc1noc(C)c1-c1ccc2nc(-c3cnn(CC(=O)N(C)C)c3)nc(NCc3cncc(Cl)c3)c2c1` [Example 140, 2-(4-(4-(((5-chloropyridin-3-yl)methyl)amino)-6-(3,5-dimethylisoxazol-4-yl)quinazolin-2-yl)-1H-pyrazol-1-yl)-N,N-dimethylacetamide], for which the Kd is below 500 nM.

On to `CN(C)C(=O)CN1CCN(c2nc(NCc3cncc(Cl)c3)c3cc(-c4ccc(=O)n(C)c4)ccc3n2)CC1` [Example 129, 2-(4-(4-(((5-chloropyridin-3-yl)methyl)amino)-6-(1-methyl-6-oxo-1,6-dihydropyridin-3-yl)quinazolin-2-yl)piperazin-1-yl)-N,N-dimethylacetamide], for which the Kd was below 500 nM.

Consider `Cc1noc(C)c1-c1ccc2nc(-c3ccc(CO)s3)nc(N3CCOC[C@@H]3c3ccccc3)c2c1` [Example 323, (S)-(5-(6-(3,5-dimethylisoxazol-4-yl)-4-(3-phenylmorpholino)quinazolin-2-yl)thiophen-2-yl)methanol], for which the Kd lay within 500 to 5000 nM.

As to `Cc1noc(C)c1-c1ccc2nc(N3CCS(=O)(=O)CC3)nc(NCc3cncc(Cl)c3)c2c1` [Example 241, 4-(4-(((5-chloropyridin-3-yl)methyl)amino)-6-(3,5-dimethylisoxazol-4-yl)quinazolin-2-yl)thiomorpholine 1,1-dioxide], the Kd was below 500 nM.

For `Cc1noc(C)c1-c1ccc2nc(C(=O)NCc3ccnc(Cl)c3)nc(NCc3cccc(Cl)c3)c2c1` [Example 202, 4-((3-chlorobenzyl)amino)-N-((2-chloropyridin-4-yl)methyl)-6-(3,5-dimethylisoxazol-4-yl)quinazoline-2-carboxamide], the Kd was below 500 nM.

With `Cc1noc(C)c1-c1ccc2nc(N3CCN(CCN(C)C)CC3)nc(N(C)Cc3cccc(Cl)c3)c2c1` [Example 85, N-(3-chlorobenzyl)-2-(4-(2-(dimethylamino)ethyl)piperazin-1-yl)-6-(3,5-dimethylisoxazol-4-yl)-N-methylquinazolin-4-amine], the Kd was below 500 nM.

As for `Cc1noc(C)c1-c1ccc2nc(N3CCCCC3CO)nc(NCc3cccc(Cl)c3)c2c1` (stereo not shown) [Example 25, (1-(4-((3-chlorobenzyl)amino)-6-(3,5-dimethylisoxazol-4-yl)quinazolin-2-yl)piperidin-2-yl)methanol], the Kd was in the range of 500 to 5000 nM.

Turning to `Cc1nn(C)cc1CNC(=O)c1nc(N2CCOC[C@@H]2c2ccccc2)c2cc(-c3c(C)noc3C)ccc2n1` [Example 281, (S)—N-((1,3-dimethyl-1H-pyrazol-4-yl)methyl)-6-(3,5-dimethylisoxazol-4-yl)-4-(3-phenylmorpholino)quinazoline-2-carboxamide], the Kd is below 500 nM.
